Data as given in ChEMBL document CHEMBL1833826, “Evaluation of PI polyamide conjugates with eight-base pair recognition and improvement of the aqueous solubility by PEGylation” (Bioorg Med Chem, 2011).
pIC50: −log10 of the molar value. Converted amounts (≈) assume the structure as drawn. The source made the active and inactive calls. The calls are words filed in the database; no cut-off is given here.

Columns and labels:
Nucleic Acid [1] = experiment: Induction of 5'-Texas Red-labelled 208-bp DNA alkylation at 5'-TGCATCCA-3' sequence at 25 to 200 nM after 18 hrs followed by quenching with calf thymus DNA by PAGE analysis; format: nucleic-acid assay
Nucleic Acid [2] = experiment: Induction of 5'-Texas Red-labelled 208-bp DNA alkylation at 5'-GTCATCCA-3' sequence at 25 to 200 nM after 18 hrs followed by quenching with calf thymus DNA by PAGE analysis; format: nucleic-acid assay
A549 = experiment: Cytotoxicity against human A549 cells after 48 hrs; format: functional, cell-based; conditions: A549, 48 h
DU-145 = experiment: Cytotoxicity against human DU145 cells after 48 hrs; format: functional, cell-based; conditions: DU-145, 48 h
Nucleic Acid [3] = experiment: Induction of 5'-Texas Red-labelled 208-bp DNA alkylation at 5'-TCCATCCA-3' sequence at 25 to 200 nM after 18 hrs followed by quenching with calf thymus DNA by PAGE analysis; format: nucleic-acid assay; conditions: Homo sapiens
Nucleic Acid [4] = experiment: Induction of 5'-Texas Red-labelled 208-bp DNA alkylation at 5'-AATACTCA-3' sequence at 25 to 200 nM after 18 hrs followed by quenching with calf thymus DNA by PAGE analysis; format: nucleic-acid assay
Nucleic Acid [5] = experiment: Induction of 5'-Texas Red-labelled 208-bp DNA alkylation at 5'-ATTTGTCA-3' sequence at 25 to 200 nM after 18 hrs followed by quenching with calf thymus DNA by PAGE analysis; format: nucleic-acid assay; conditions: Homo sapiens
Nucleic Acid [6] = experiment: Induction of 5'-Texas Red-labelled 208-bp DNA alkylation at 5'-ATTCACTA-3' sequence at 25 to 200 nM after 18 hrs followed by quenching with calf thymus DNA by PAGE analysis; format: nucleic-acid assay; conditions: Homo sapiens
[7] = Solubility of the compound in Milli-Q water at 25 degC; format: physicochemical
[8] = Chemical stability of the compound in 5 mM sodium phosphate buffer containing 10% DMF at pH 7 assessed as half life by HPLC analysis; format: physicochemical

| SMILES | pIC50 (A549) | pIC50 (DU-145) | solubility [7] [µM] | half-life [8] [h] | other results |
| --- | --- | --- | --- | --- | --- |
| CC(=O)Nc1cn(C)c(C(=O)Nc2cn(C)c(C(=O)Nc3cc(C(=O)NCCC(=O)Nc4cn(C)c(C(=O)Nc5cn(C)c(C(=O)NCCCC(=O)Nc6cc(C(=O)Nc7cc(C(=O)NCCC(=O)Nc8cc(C(=O)Nc9ccc%10[nH]c(C(=O)N%11CC(CCl)c%12c%11cc(O)c%11ccccc%12%11)cc%10c9)n(C)c8)n(C)c7)n(C)c6)n5)n4)n(C)c3)n2)n1 (configuration not stated) | 6.62 | 7.35 | – | – | Activity (Nucleic Acid [1]): 47%; Activity (Nucleic Acid [2]): 11%; Activity (Nucleic Acid [3]): Active |
| CC(=O)Nc1cn(C)c(C(=O)Nc2cc(C(=O)Nc3cc(C(=O)NCCC(=O)Nc4cc(C(=O)Nc5cc(C(=O)NCCCC(=O)Nc6cc(C(=O)Nc7cc(C(=O)NCCC(=O)Nc8cn(C)c(C(=O)Nc9ccc%10[nH]c(C(=O)N%11CC(CCl)c%12c%11cc(O)c%11ccccc%12%11)cc%10c9)n8)n(C)c7)n(C)c6)n(C)c5)n(C)c4)n(C)c3)n(C)c2)n1 (configuration not stated) | 7.54 | 8.10 | – | – | Activity (Nucleic Acid [4]): 54%; Activity (Nucleic Acid [5]): Active |
| CC(=O)Nc1cc(C(=O)Nc2cn(C)c(C(=O)NCCC(=O)Nc3cn(C)c(C(=O)Nc4cc(C(=O)Nc5cc(C(=O)NCCCC(=O)Nc6cc(C(=O)Nc7cc(C(=O)Nc8cc(C(=O)Nc9cc(C(=O)Nc%10ccc%11[nH]c(C(=O)N%12CC(CCl)c%13c%12cc(O)c%12ccccc%13%12)cc%11c%10)n(C)c9)n(C)c8)n(C)c7)n(C)c6)n(C)c5)n(C)c4)n3)n2)n(C)c1 (configuration not stated) | 6.62 | 7.21 | – | – | Activity (Nucleic Acid [6]): Active |
| CC(=O)Nc1cn(C)c(C(=O)Nc2cn(C)c(C(=O)Nc3cc(C(=O)Nc4cc(C(=O)NCCCC(=O)Nc5cn(C)c(C(=O)Nc6cn(C)c(C(=O)Nc7ccc8[nH]c(C(=O)N9CC(CCl)c%10c9cc(O)c9ccccc%109)cc8c7)n6)n5)n(C)c4)n(C)c3)n2)n1 (configuration not stated) | 6.87 | 7.33 | – | – | – |
| CC(=O)Nc1cc(C(=O)Nc2cn(C)c(C(=O)NCCC(=O)Nc3cn(C)c(C(=O)Nc4cc(C(=O)Nc5cc(C(=O)NCCCC(=O)Nc6cc(C(=O)Nc7cc(C(=O)Nc8cc(C(=O)Nc9cc(C(=O)Nc%10ccc%11[nH]c(C(=O)N%12CC(CCl)c%13c%12cc(OC(=O)NCCCN(C)C)c%12ccccc%13%12)cc%11c%10)n(C)c9)n(C)c8)n(C)c7)n(C)c6)n(C)c5)n(C)c4)n3)n2)n(C)c1 (configuration not stated) | – | – | 230 (≈ 418 µg/mL) | 1.1 | – |
| CC(=O)Nc1cc(C(=O)Nc2cn(C)c(C(=O)NCCC(=O)Nc3cn(C)c(C(=O)Nc4cc(C(=O)Nc5cc(C(=O)NCCCC(=O)Nc6cc(C(=O)Nc7cc(C(=O)Nc8cc(C(=O)Nc9cc(C(=O)Nc%10ccc%11[nH]c(C(=O)N%12CC(CCl)c%13c%12cc(OC(=O)[C@@H](N)CCCCN)c%12ccccc%13%12)cc%11c%10)n(C)c9)n(C)c8)n(C)c7)n(C)c6)n(C)c5)n(C)c4)n3)n2)n(C)c1 (some centres not stated) | – | – | 1200 (≈ 2180 µg/mL) | < 1 | – |
| COCCNC(=O)Oc1cc2c(c3ccccc13)C(CCl)CN2C(=O)c1cc2cc(NC(=O)c3cc(NC(=O)c4cc(NC(=O)c5cc(NC(=O)c6cc(NC(=O)CCCNC(=O)c7cc(NC(=O)c8cc(NC(=O)c9nc(NC(=O)CCNC(=O)c%10nc(NC(=O)c%11cc(NC(C)=O)cn%11C)cn%10C)cn9C)cn8C)cn7C)cn6C)cn5C)cn4C)cn3C)ccc2[nH]1 (configuration not stated) | – | – | 180 (≈ 323 µg/mL) | 3.5 | – |
| CC(=O)Nc1cn(C)c(C(=O)Nc2cc(C(=O)Nc3cc(C(=O)NCCC(=O)Nc4cc(C(=O)NCCCC(=O)Nc5cc(C(=O)NCCC(=O)Nc6cn(C)c(C(=O)Nc7ccc8[nH]c(C(=O)N9CC(CCl)c%10c9cc(O)c9ccccc%109)cc8c7)n6)n(C)c5)n(C)c4)n(C)c3)n(C)c2)n1 (configuration not stated) | 7.29 | 7.55 | – | – | – |
